Tested on: L-687,414-induced hyperlocomotion
Assay: L-687,414-induced hyperlocomotion (Digiscan locomotor activity)
Format: in vivo, mouse
Details: mice; for Inhibition, ip: dose ip 30, at the same time as s.c. 50 mg/kg L-687,414, % inhibition of horizontal activity; for ID50 po: p.o. 15 min before s.c. 50 mg/kg L-687,414, dose producing 50% inhibition of hyperlocomotion
Protocol: The authors described that hyperlocomotion induced by L-687,414 was inhibited by a series of known antipsychotic drugs. […] These findings predict antipsychotic activity for the present compounds, making them useful for the treatment of schizophrenia and other disorders as described above.
The described compounds of formula I and I-1 reduce L-687,414-induced hyperlocomotion. This was assessed by using a computerized Digiscan 16 Animal Activity Monitoring System (Omnitech Electronics, Columbus, Ohio) to quantify locomotor activity. Animals were kept under a 12 h light/dark cycle and experiments were performed during the light period. Each activity monitoring chamber consisted of a Plexiglas box (41×41×28 cm; W×L×H) with sawdust bedding on the floor surrounded by invisible horizontal and vertical infrared sensor beams. The test boxes were divided by a Plexiglas cross providing each mouse with 20×20 cm of moving space. Cages were connected to a Digiscan Analyzer linked to a computer that constantly collected the beam status information. Records of photocell beam interruptions for individual animals were taken every 5 min over the duration of the experimental session and the sum of the first 6 periods was used as the final parameter. Compounds were administered either p.o. 15 min before a s.c. injection of 50 mg/kg of L-687,414, or i.p. at the same time as a s.c. injection of 50 mg/kg of L-687,414. Mice were then transferred from their home cage to the recording chambers for a 15-min habituation phase allowing free exploration of the new environment. Horizontal activity was then recorded for a 30-min time period. The % inhibition of L-687,414-induced hyperlocomotion was calculated according to the equation: ((Veh+L-687,414 horizontal activity−drug+L-687,414 horizontal activity)/Veh+L-687,414 horizontal activity)×100
ID50 values, defined as doses of each compound producing 50% inhibition of L-687,414-induced hyperlocomotion, were calculated by linear regression analysis of a dose-response data using an Excel-based computer-fitting program.
As data was not presupposed to be normally distributed, groups treated with test compounds were statistically compared with the control (vehicle-treated) group using one-tailed Mann Whitney U tests. In statistics, the Mann-Whitney U test (also called the Mann-Whitney-Wilcoxon (MWW) or Wilcoxon rank-sum test) is a non-parametric statistical hypothesis test for assessing whether one of two samples of independent observations tends to have larger values than the other. It is one of the most well-known non-parametric significance tests. […] P values given in table 1 are one-tailed since only decreases in locomotion were expected and tested for (Mann, H. B., Whitney, D. R. (1947), “On a Test of Whether one of Two Random Variables is Stochastically Larger than the Other”, Annals of Mathematical Statistics, 18 (1), 50-60).

SMILES	Inhibition, ip	ID50 po
Cc1cc(C(=O)Nc2ccc3c(c2)N(C)C(=O)C3(C)C)c(F)cn1 [Example 33, 5-Fluoro-2-methyl-N-(1,3,3-trimethyl-2-oxoindolin-6-yl)isonicotinamide]	78.6%	–
CN1C(=O)C(C)(C)c2ccc(NC(=O)c3ccncc3Cl)cc21 [Example 27, 3-Chloro-N-(1,3,3-trimethyl-2-oxoindolin-6-yl)isonicotinamide]	–	1.95 mg/kg
Cc1cc(C(=O)Nc2cc3c(cn2)C(C)(C)C(=O)N3C2CC2)ccn1 [Example 81, N-(1-Cyclopropyl-3,3-dimethyl-2-oxo-2,3-dihydro-1H-pyrrolo[3,2-c]pyridin-6-yl)-2-methylisonicotinamide]	53.1%	–
Cc1cc(C(=O)Nc2cc3c(cc2F)C(C)(C)C(=O)N3C2CC2)ccn1 [Example 46, N-(1-Cyclopropyl-5-fluoro-3,3-dimethyl-2-oxoindolin-6-yl)-2-methylisonicotinamide]	72.7%	–
CC1(C)C(=O)N(C2COC2)c2cc(NC(=O)c3cccnc3)ccc21 [Example 64, N-(3,3-Dimethyl-1-(oxetan-3-yl)-2-oxoindolin-6-yl)nicotinamide]	65.9%	–
Cc1ccncc1C(=O)Nc1ccc2c(c1)N(C)C(=O)C2(C)C [Example 9, 4-Methyl-N-(1,3,3-trimethyl-2-oxoindolin-6-yl)nicotinamide]	–	6.6 mg/kg
Cn1nccc1C(=O)Nc1cc2c(cn1)C(C)(C)C(=O)N2C1CC1 [Example 86, N-(1-Cyclopropyl-3,3-dimethyl-2-oxo-2,3-dihydro-1H-pyrrolo[3,2-c]pyridin-6-yl)-1-methyl-1H-pyrazole-5-carboxamide]	69%	–
Cc1cc(C(=O)Nc2ccc3c(c2)N(C2CC2)C(=O)C3(C)C)ccn1 [Example 17, N-(1-Cyclopropyl-3,3-dimethyl-2-oxoindolin-6-yl)-2-methylisonicotinamide]	79.3%	–
CC1(C)C(=O)N(CCO)c2cc(NC(=O)c3ccncc3F)ccc21 [Example 68, 3-Fluoro-N-(1-(2-hydroxyethyl)-3,3-dimethyl-2-oxoindolin-6-yl)isonicotinamide]	89.1%	–
Cc1cc(C(=O)Nc2ccc3c(c2)N(C2CC2)C(=O)C32CC2)ccn1 [Example 60, N-(1′-Cyclopropyl-2′-oxospiro[cyclopropane-1,3′-indoline]-6′-yl)-2-methylisonicotinamide]	63.2%	–
COc1ccc(C(=O)Nc2ccc3c(c2)N(C)C(=O)C3(C)C)cn1 [Example 10, 6-Methoxy-N-(1,3,3-trimethyl-2-oxoindolin-6-yl)nicotinamide]	62.2%	–
CC1(C)C(=O)N(C2CC2)c2cc(NC(=O)c3ccno3)ncc21 [Example 85, N-(1-Cyclopropyl-3,3-dimethyl-2-oxo-2,3-dihydro-1H-pyrrolo[3,2-c]pyridin-6-yl)isoxazole-5-carboxamide]	74.9%	–
CC1(C)C(=O)Nc2cc(NC(=O)c3ccncc3F)ccc21 [Example 72, N-(3,3-Dimethyl-2-oxoindolin-6-yl)-3-fluoroisonicotinamide]	–	2.22 mg/kg
Cc1cc(C(=O)Nc2ccc3c(c2)N(C2CC2)C(=O)C3(C)C)c(F)cn1 [Example 54, N-(1-Cyclopropyl-3,3-dimethyl-2-oxoindolin-6-yl)-5-fluoro-2-methylisonicotinamide]	55.6%	–
COc1cnccc1C(=O)Nc1ccc2c(c1)N(C)C(=O)C2(C)C [Example 15, 3-Methoxy-N-(1,3,3-trimethyl-2-oxoindolin-6-yl)isonicotinamide]	56.3%	–
CN1C(=O)C(C)(C)c2cnc(NC(=O)c3ccncc3)cc21 [Example 6, N-(1,3,3-Trimethyl-2-oxo-2,3-dihydro-1H-pyrrolo[3,2-c]pyridin-6-yl)isonicotinamide]	64.5%	–
COc1ncc(C(=O)Nc2cc3c(cn2)C(C)(C)C(=O)N3C2CC2)cn1 [Example 88, N-(1-Cyclopropyl-3,3-dimethyl-2-oxo-2,3-dihydro-1H-pyrrolo[3,2-c]pyridin-6-yl)-2-methoxypyrimidine-5-carboxamide]	–	6.11 mg/kg

SMILES	Inhibition, ip	ID50 po
CCN1C(=O)C(C)(C)c2ccc(NC(=O)c3ccncc3F)cc21 [Example 41, N-(1-ethyl-3,3-dimethyl-2-oxoindolin-6-yl)-3-fluoroisonicotinamide]	85.2%	–
CC1(C)C(=O)N(C2CC2)c2cc(NC(=O)c3cccnc3)c(F)cc21 [Example 38, N-(1-Cyclopropyl-5-fluoro-3,3-dimethyl-2-oxoindolin-6-yl)nicotinamide]	60.8%	–
CC1(C)C(=O)N(C2CC2)c2cc(NC(=O)c3ccncc3)ccc21 [Example 14, N-(1-Cyclopropyl-3,3-dimethyl-2-oxoindolin-6-yl)isonicotinamide]	66.5%	–
Cc1cc(C(=O)Nc2cc3c(cc2Cl)C(C)(C)C(=O)N3C)ccn1 [Example 35, N-(5-Chloro-1,3,3-trimethyl-2-oxoindolin-6-yl)-2-methylisonicotinamide]	57.3%	–
CN1C(=O)C(C)(C)c2ccc(NC(=O)c3ccncc3)cc21 [Example 2, N-(1,3,3-Trimethyl-2-oxo-2,3-dihydro-1H-indol-6-yl)-isonicotinamide]	–	2.06 mg/kg
CC1(C)C(=O)N(CCCO)c2cc(NC(=O)c3ccncc3F)ccc21 [Example 69, 3-Fluoro-N-(1-(3-hydroxypropyl)-3,3-dimethyl-2-oxoindolin-6-yl)isonicotinamide]	82.4%	–
CC1(C)C(=O)N(CCCO)c2cc(NC(=O)c3ccncc3Cl)ccc21 [Example 73, 3-Chloro-N-(1-(3-hydroxypropyl)-3,3-dimethyl-2-oxoindolin-6-yl)isonicotinamide]	51.2%	–
Cc1cc(C(=O)Nc2ccc3c(c2)NC(=O)C3(C)C)ccn1 [Example 1, N-(3,3-Dimethyl-2-oxo-2,3-dihydro-1H-indol-6-yl)-2-methyl-isonicotinamide]	81.6%	–
CC1(C)C(=O)N(C2CC2)c2cc(NC(=O)c3ccncc3F)ccc21 [Example 31, N-(1-Cyclopropyl-3,3-dimethyl-2-oxoindolin-6-yl)-3-fluoroisonicotinamide]	–	1 mg/kg
CC1(C)C(=O)N(C2CC2)c2cc(NC(=O)c3cccnc3)ccc21 [Example 18, N-(1-Cyclopropyl-3,3-dimethyl-2-oxoindolin-6-yl)nicotinamide]	68.8%	–
O=C(Nc1ccc2c(c1)N(C1CC1)C(=O)C21CC1)c1ccncc1F [Example 57, N-(1′-Cyclopropyl-2′-oxospiro[cyclopropane-1,3′-indoline]-6′-yl)-3-fluoroisonicotinamide]	60.5%	–
Cc1cc(C(=O)Nc2ccc3c(c2)N(C)C(=O)C3(C)C)nc(C)n1 [Example 8, 2,6-Dimethyl-N-(1,3,3-trimethyl-2-oxoindolin-6-yl)pyrimidine-4-carboxamide]	70.7%	–
CN1C(=O)C(C)(C)c2cc(F)c(NC(=O)c3cccnc3)cc21 [Example 24, N-(5-fluoro-1,3,3-trimethyl-2-oxoindolin-6-yl)nicotinamide]	80.0%	–
CCN1C(=O)C(C)(C)c2ccc(NC(=O)c3ccncc3)cc21 [Example 7, N-(1-ethyl-3,3-dimethyl-2-oxoindolin-6-yl)isonicotinamide]	90.4%	–
CC1(C)C(=O)N(C2CC2)c2cc(NC(=O)c3ccncc3)c(F)cc21 [Example 36, N-(1-cyclopropyl-5-fluoro-3,3-dimethyl-2-oxoindolin-6-yl)isonicotinamide]	89.0%	–
CN1C(=O)C2(CCCC2)c2ccc(NC(=O)c3ccncc3)cc21 [Example 3, N-(1′-Methyl-2′-oxospiro[cyclopentane-1,3′-indoline]-6′-yl)isonicotinamide]	83.3%	–
Cc1cc(C(=O)Nc2ccc3c(c2F)N(C)C(=O)C3(C)C)ccn1 [Example 28, N-(7-fluoro-1,3,3-trimethyl-2-oxoindolin-6-yl)-2-methylisonicotinamide]	74.7%	–
